Assay results: paper PMC12990037, “Discovery of Two Structurally Distinct Classes of Inhibitors Targeting the Nuclease MUS81 and Enhancing Efficacy of Chemotherapy in Cancer Cells” (Journal of Medicinal Chemistry, 2026)

Legend:
Assay type in all cases: cell-based
U2OS cells [1] = experiment: Colony formation assay (CFA); details: 10–12 days
Protocol: 6 MUS81 inhibition induces persistent DNA damage leading to reduced cell survival. (A) U2OS cells were treated with DMSO, cisplatin as a positive control, control or MUS81-targeting siRNA, MU262, MU876, and their negative control counterparts at the indicated concentrations for 72 h. Representative images show staining of a DNA damage marker γH2AX in green with counterstaining of DAPI in blue. The concentration of all inhibitors shown in (A) is 2.5 μM. (B) DNA damage was assessed by quantifying γH2AX foci per nucleus from (A) using CellProfiller software. The graph represents percentage (%) of cells with ≥20 γH2AX foci per nucleus across different concentrations of inhibitors. n = 3; error bars represent s.d. (C) Indicated number of U2OS cells was transfected with a nontargeting siRNA (siCon) or MUS81-targeting siRNA (siMUS81) seeded for a CFA. […] (D) Quantification of (C), error bars represent s.d.; ****p <0.0001 (unpaired, two-tailed t-test). […] (F) Quantification of (E) using a nonlinear regression fitting model. n = 3. […] (H) Quantification of (G) using a nonlinear regression fitting model. n = 3.
Cells were trypsinized, plated at the desired density in 6-well plates for colony forming assay, and then incubated for 10 days. […] The colonies were then solubilized using 10% acetic acid solution, and absorbance was measured with a plate reader. […]

CAL51 MUS81^–/– cells = experiment: Cell proliferation assay (CyQUANT), combination with cisplatin
Protocol: CAL51 WT, CAL51 MUS81^–/–, U2OS, and HEK293 cells were seeded in a 96-well plate and treated with the respective concentration of selected inhibitors. After incubation for 4–5 days, cells were harvested while the untreated control was still subconfluent. The plate was then incubated at −80 °C to achieve cell lysis. Cell proliferation was assessed using the CyQUANT Cell Proliferation Assay kit (Thermo Fisher Scientific) according to manufacturer’s instructions. […] was measured using a plate reader (Infinite F500, Tecan Austria GmbH).

U2OS cells [2] = experiment: Analysis of micronuclei; details: 48 h
Protocol: (§1) 5 Small-molecule inhibitors of MUS81 mimic the effect of siRNA-mediated MUS81 depletion in cells. (A) U2OS cells were treated with DMSO, MUS81-targeting siRNA, MU262, MU876, or their respective control analogues for 48 h. Cytochalasin B (1.25 μg/mL) was added 16 h before harvest to prevent cytokinesis. […] (B) Representative images corresponding to the selected conditions from (A). (C) U2OS and (D) HeLa cells were incubated with DMSO, the indicated inhibitors, and their respective control analogues for 48 h. Nocodazole (200 ng/mL) was added for 5 h prior to the end of treatment to arrest cells in mitosis. Mitotic cells were collected by shake-off, and telomere fragility events (TFEs) were quantified manually for each metaphase spread. At least 70 metaphase spreads were quantified per condition. n = 3; error bars represent s.d.; ***p < 0.001, ****p < 0.0001 (ordinary One-way ANOVA).
CAL51 WT and CAL51 MUS81^–/– cells were seeded in a 96-well plate 24 h before the treatment. Alternatively, cells were transfected with 30 nM siRNA (control or MUS81) for 48 h before treatment. Subsequently, cells were treated with respective inhibitors for 48 h. During the last 16 h, cytochalasin B (Sigma-Aldrich) was added to the cells at a concentration of 1.25 μg/mL. […] Images were acquired using a Nikon Eclipse fluorescence microscope and analyzed using ImageJ software.

HeLa cells = experiment: Detection of TFEs by FISH on metaphase spreads; details: 48 h
Protocol: as §1
(§2) U2OS and HeLa cells were seeded in 10 cm dishes. The next day, the medium was changed, and compounds were added at desired concentrations. This process was repeated after 43 h except that compounds were added together with 200 ng/mL of nocodazole. Cells were collected 5 h later by shake-off and incubated in 75 mM KCl at 37 °C for 10 min. Chromosomes were fixed in ice-cold methanol/acetic acid (3:1) and spread on glass slides. Slides were then treated with 20 μg/mL RNase A (Sigma-Aldrich), in 1x PBS at 37 °C for 1 h, fixed in 4% formaldehyde (Sigma-Aldrich) in 1x PBS for 2 min, and treated with 70 μg/mL pepsin (Sigma-Aldrich) in 2 mM glycine, pH 2 (Sigma-Aldrich) at 37 °C for 5 min. Slides were fixed again with 4% formaldehyde in 1x PBS for 2 min, incubated subsequently in 70%, 90%, and 100% ethanol for 5 min each, and air-dried. A C-rich telomeric PNA probe (5′-AF568-OO-p4[…]-3′; Panagene) diluted in hybridization solution (10 mM Tris–HCl pH 7.2, 70% formamide, 0.5% blocking solution (Roche)) was applied onto the slides followed by incubation at 80 °C for 5 min and at room temperature for 2 h. Slides were washed twice in 10 mM Tris–HCl pH 7.2, 70% formamide, and 0.1% BSA and three times in 100 mM Tris–HCl pH 7.2, 150 mM NaCl, and 0.08% Tween-20 at room temperature for 10 min each. DNA was counterstained with 100 ng/mL DAPI (Sigma-Aldrich) in 1x PBS and slides were mounted in Vectashield (Vector Labs). Images were acquired with a Zeiss Cell Observer equipped with a cooled Axiocam 506 m camera and a 63X/1.4NA oil DIC M27 PlanApo N objective. Image analysis was performed using ImageJ and Photoshop software (Adobe Inc.).

ALT-positive U2OS cells = experiment: Detection of TFEs by FISH on metaphase spreads; details: 48 h
Protocol: as §1, §2

SMILES	clonogenic cell survival (U2OS cells [1])	sensitization to cisplatin (CAL51 MUS81^–/– cells)	micronuclei formation (U2OS cells [2])	telomere-free ends (TFEs) (HeLa cells)	telomere-free ends (TFEs) (ALT-positive U2OS cells)
CCc1nn2c(O)c(-c3nc4ccccc4[nH]3)nnc2c1-c1ccc(F)cc1 [Compound 18, 3-(1H-Benzo[d]imidazole-2-yl)-7-ethyl-8-(4-fluorophenyl)pyrazolo[5,1-c][1,2,4]triazin-4-ol]	significantly decreased cell survival	no additional sensitization	significantly increased micronuclei formation	but not in telomerase-positive and ALT-negative HeLa cells	significantly increased the presence of telomere-free ends (TFEs)
Cc1cc(=O)[nH]c(-n2nc(-c3ccccc3)cc2NC(=O)c2cc(-c3ccccc3)on2)n1 [Compound 32, N-(1-(4-Methyl-6-oxo-1,6-dihydropyrimidin-2-yl)-3-phenyl-1H-pyrazol-5-yl)-5-phenylisoxazole-3-carboxamide]	significantly decreased cell survival	no additional sensitization	significantly increased micronuclei formation	but not in telomerase-positive and ALT-negative HeLa cells	significantly increased the presence of telomere-free ends (TFEs)
